Tested on: ER-positive and HER2-negative advanced breast cancer
Assay: TED14856 Part A: antitumor activity per RECIST v1.1 (BOR, ORR, CBR)
Text: The signal extinction between baseline and on study treatment ^18FES-PET scans constitute the PD readout of the ER engagement.
Patients with an early progression as per RECIST v1.1 or who died from disease progression are evaluable for response.
Preliminary efficacy is descriptively presented on activity/efficacy population.

O=C(O)c1ccc2c(c1)CCCC(c1ccc(Cl)cc1Cl)=C2c1ccc(O[C@H]2CCN(CCCF)C2)cc1 [compound (1), 6-(2,4-dichlorophenyl)-5-[4-[(3S)-1-(3-fluoropropyl)pyrrolidin-3-yl]oxyphenyl]-8,9-dihydro-7H-benzo[7]annulene-2-carboxylic acid]
Clinical Benefit Rate (20 mg, N=3): 0 n
Complete Response (CR) (20 mg, N=3): 0 n
Objective Response Rate (20 mg, N=3): 0 n
Partial Response (PR) (20 mg, N=3): 0 n
Complete Response (CR) (150 mg, N=3): 0 n
Complete Response (CR) (200 mg, N=4): 0 n
Objective Response Rate (200 mg, N=4): 0 n
Partial Response (PR) (200 mg, N=4): 0 n
Complete Response (CR) (400 mg, N=3): 0 n
Objective Response Rate (400 mg, N=3): 0 n
Partial Response (PR) (400 mg, N=3): 0 n
Complete Response (CR) (600 mg, N=3): 0 n
Objective Response Rate (600 mg, N=3): 0 n
Partial Response (PR) (600 mg, N=3): 0 n
Complete Response (CR) (All, N=16): 0 n
patients with tumor shrinkage greater than 10% (N=16): 9 patients
Clinical Benefit Rate (CBR) (patients with ESR1 mutations (5/11)): 45.5%
Clinical Benefit Rate (CBR) (patients with wild-type ESR1 (3/5)): 60.0%

Reference: patent publication US20200352905A1, “6-(2,4-DICHLOROPHENYL)-5-[4-[(3S)-1-(3-FLUOROPROPYL)PYRROLIDIN-3-YL]OXYPHENYL]-8,9-DIHYDRO-7H-BENZO[7]ANNULENE-2-CARBOXYLIC ACID FOR USE IN METASTATIC OR ADVANCED BREAST CANCER PATIENTS” (SANOFI, priority 2019, published 2020)
